Data published in patent US20220298186A1, “BIARYL DIALKYL PHOSPHINE OXIDE FPR2 AGONISTS” (BRISTOL-MYERS SQUIBB COMPANY, priority 2019, published 2022).

Tests used:
human FPR2 receptors = molecular target: T1, human FPR2 receptors (Homo sapiens, UniProt P25090); assay: FPR2 cyclic adenosine monophosphate (cAMP) assay; type: cell-based; conditions: CHO cells overexpressing human FPR2; forskolin 5 μM, IBMX 200 μM; 30 min at rt; inhibition of cAMP production (HTRF); read-out: hFPR2 cAMP2 EC50
T1 sequence (P25090 1-351): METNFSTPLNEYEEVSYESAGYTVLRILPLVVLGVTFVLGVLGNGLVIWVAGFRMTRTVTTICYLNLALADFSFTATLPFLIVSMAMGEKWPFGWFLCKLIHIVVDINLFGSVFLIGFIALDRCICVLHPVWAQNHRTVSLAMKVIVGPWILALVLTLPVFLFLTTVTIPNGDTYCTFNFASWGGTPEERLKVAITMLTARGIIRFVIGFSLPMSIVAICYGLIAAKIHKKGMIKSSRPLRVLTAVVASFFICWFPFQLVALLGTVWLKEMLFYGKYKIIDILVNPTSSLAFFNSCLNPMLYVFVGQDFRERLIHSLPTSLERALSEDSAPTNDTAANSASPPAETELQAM
Text: (§1) N-formyl peptide receptors (FPRs) are a family of chemo attractant receptors that facilitate leukocyte response during inflammation. FPRs belong to the seven-transmembrane G protein-coupled receptor superfamily and are linked to inhibitory G-proteins (Gi). Three family members (FPR1, FPR2 and FPR3) have been identified in humans and are predominantly found in myeloid cells with varied distribution and have also been reported in multiple organs and tissues. After agonist binding, the FPRs activate a multitude of physiological pathways, such as intra cellular signaling transduction, Ca^2+ mobilization and transcription. The family interacts with a diverse set of ligands that includes proteins, polypeptides and fatty acid metabolites which activate both pro-inflammatory and pro-resolution downstream responses. FPR2 and FPR1 Cyclic Adenosine Monophosphate (cAMP) Assays were used to measure the activity of the compounds in this patent.
(§2) FPR2 and FPR1 Cyclic Adenosine Monophosphate (cAMP) Assays. A mixture of forskolin (5 μM final for FPR2 or 10 μM final for FPR1) and IBMX (200 μM final) were added to 384-well Proxiplates (Perkin-Elmer) pre-dotted with test compounds in DMSO (1% final) at final concentrations in the range of 0.020 nM to 100 μM. Chinese Hamster Ovary cells (CHO) overexpressing human FPR1 or human FPR2 receptors were cultured in F-12 (Ham's) medium supplemented with 10% qualified FBS, 250 μg/mL zeocin and 300 μg/mL hygromycin (Life Technologies). Reactions were initiated by adding 2,000 human FPR2 cells per well or 4,000 human FPR1 cells per well in Dulbecco's PBS (with calcium and magnesium) (Life Technologies) supplemented with 0.1% BSA (Perkin-Elmer). The reaction mixtures were incubated for 30 min at rt. The level of intracellular cAMP was determined using the HTRF HiRange cAMP assay reagent kit (Cisbio) according to manufacturer's instruction. Solutions of cryptate conjugated anti-cAMP and d2 flurorophore-labelled cAMP were made in a supplied lysis buffer separately. Upon completion of the reaction, the cells were lysed with equal volume of the d2-cAMP solution and anti-cAMP solution. After a 1-h rt incubation, time-resolved fluorescence intensity was measured using the Envision (Perkin-Elmer) at 400 nm excitation and dual emission at 590 nm and 665 nm. A calibration curve was constructed with an external cAMP standard at concentrations ranging from 1 μM to 0.1 μM by plotting the fluorescent intensity ratio from 665 nm emission to the intensity from the 590 nm emission against cAMP concentrations. The potency and activity of a compound to inhibit cAMP production was then determined by fitting to a 4-parametric logistic equation from a plot of cAMP level versus compound concentrations.
(§3) The examples disclosed below were tested in the FPR2 and FPR1 cAMP assay described above and found having FPR2 and/or FPR1 agonist activity. Table 1 below lists EC50 values in the FPR2 and FPR1 cAMP assays measured for the following examples.

human FPR1 receptors = molecular target: T2, human FPR1 receptors (Homo sapiens, UniProt P21462); assay: FPR1 cyclic adenosine monophosphate (cAMP) assay; type: cell-based; conditions: CHO cells overexpressing human FPR1; forskolin 10 μM, IBMX 200 μM; 30 min at rt; inhibition of cAMP production (HTRF); read-out: hFPR1 cAMP EC50
T2 sequence (P21462 1-350): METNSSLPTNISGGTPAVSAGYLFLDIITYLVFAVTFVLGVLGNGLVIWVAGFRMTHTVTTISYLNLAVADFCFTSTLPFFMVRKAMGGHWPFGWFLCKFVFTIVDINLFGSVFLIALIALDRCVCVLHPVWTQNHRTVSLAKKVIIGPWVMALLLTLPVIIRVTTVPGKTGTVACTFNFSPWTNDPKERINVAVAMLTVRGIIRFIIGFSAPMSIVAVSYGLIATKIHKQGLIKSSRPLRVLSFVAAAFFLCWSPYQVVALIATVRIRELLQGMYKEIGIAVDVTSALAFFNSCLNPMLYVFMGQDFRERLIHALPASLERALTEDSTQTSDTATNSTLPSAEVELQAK
Text: as §1, §2, §3

With `CP(C)(=O)c1ccccc1-c1ccc(N2CCC[C@@H](NC(=O)Nc3ccc(OC(F)(F)F)cc3)C2=O)c(F)c1F` [Example 10, 3-[(3R)-1-[2′-(Dimethylphosphoryl)-2,3-difluoro-[1,1′-biphenyl]-4-yl]-2-oxopiperidin-3-yl]-1-[4-(trifluoromethoxy)phenyl] urea] the EC50 (human FPR2 receptors) was 0.0014 µM and the EC50 (human FPR1 receptors) was 0.37 µM.
Work on `CP(C)(=O)c1ccccc1-c1cc(F)c(N2CCC[C@@H](NC(=O)Nc3cnc(Cl)cn3)C2=O)c(F)c1` [Example 17, 1-(5-Chloropyrazin-2-yl)-3-[(3R)-1-[2′-(dimethylphosphoryl)-3,5-difluoro-[1,1′-biphenyl]-4-yl]-2-oxopiperidin-3-yl]urea] yielded an EC50 (human FPR2 receptors) of 0.0086 µM and an EC50 (human FPR1 receptors) of over 10 µM.
`CP(C)(=O)c1ccccc1-c1ccc(N2CCC[C@@H](NC(=O)Nc3ncc(Cl)cc3F)C2=O)c(F)c1F` [Example 9, 1-(5-Chloro-3-fluoropyridin-2-yl)-3-[(3R)-1-[2′-(dimethylphosphoryl)-2,3-difluoro-[1,1′-biphenyl]-4-yl]-2-oxopiperidin-3-yl]urea] was tested, and the EC50 (human FPR2 receptors) was 0.0022 µM and the EC50 (human FPR1 receptors) was 1.4 µM.
Work on `CP(C)(=O)c1ccccc1-c1ccc(N2CCC[C@@H](NC(=O)Nc3ccc(Cl)cc3F)C2=O)c(F)c1F` [Example 1, (R)-1-(4-Chloro-2-fluorophenyl)-3-(1-(2′-(dimethylphosphoryl)-2,3-difluoro-[1,1′-biphenyl]-4-yl)-2-oxopiperidin-3-yl)urea] yielded an EC50 (human FPR2 receptors) of 0.00012 µM and an EC50 (human FPR1 receptors) of 0.11 µM.
For `CCP(=O)(CC)c1ccccc1-c1cc(F)c(N2CCC[C@@H](NC(=O)Nc3ncc(Cl)cc3F)C2=O)c(F)c1` [Example 15, 1-(5-Chloro-3-fluoropyridin-2-yl)-3-[(3R)-1-[2′-(diethylphosphoryl)-3,5-difluoro-[1,1′-biphenyl]-4-yl]-2-oxopiperidin-3-yl]urea], the EC50 (human FPR2 receptors) was 0.0083 µM and the EC50 (human FPR1 receptors) was 7 µM.
For `CCP(=O)(CC)c1ccccc1-c1ccc(N2CCC[C@@H](NC(=O)Nc3ncc(Cl)cc3F)C2=O)c(F)c1F` [Example 14, 1-(5-Chloro-3-fluoropyridin-2-yl)-3-[(3R)-1-[2′-(diethylphosphoryl)-2,3-difluoro-[1,1′-biphenyl]-4-yl]-2-oxopiperidin-3-yl]urea], the EC50 (human FPR2 receptors) was 0.006 µM and the EC50 (human FPR1 receptors) was 1.5 µM.
`COc1ccc(NC(=O)N[C@@H]2CCCN(c3c(F)cc(-c4ccccc4P(C)(C)=O)cc3F)C2=O)cc1` [Example 13, 3-[(3R)-1-[2′-(Dimethylphosphoryl)-3,5-difluoro-[1,1′-biphenyl]-4-yl]-2-oxopiperidin-3-yl]-1-(4-methoxyphenyl)urea] was tested, and the EC50 (human FPR2 receptors) was 0.0056 µM and the EC50 (human FPR1 receptors) was 2.4 µM.
`CP(C)(=O)c1ccccc1-c1cc(F)c(N2CCC[C@@H](NC(=O)Nc3ccc(Cl)cc3F)C2=O)c(F)c1` [Example 7, 1-(4-Chloro-2-fluorophenyl)-3-[(3R)-1-[2′-(dimethylphosphoryl)-3,5-difluoro-[1,1′-biphenyl]-4-yl]-2-oxopiperidin-3-yl]urea] showed an EC50 (human FPR2 receptors) of 0.00079 µM and an EC50 (human FPR1 receptors) of 2.6 µM.
`CP(C)(=O)c1ccccc1-c1ccc(N2CCC[C@@H](NC(=O)Nc3cnc(Cl)cn3)C2=O)c(F)c1F` [Example 8, 1-(5-Chloropyrazin-2-yl)-3-[(3R)-1-[2′-(dimethylphosphoryl)-2,3-difluoro-[1,1′-biphenyl]-4-yl]-2-oxopiperidin-3-yl]urea] showed an EC50 (human FPR2 receptors) of 0.0015 µM and an EC50 (human FPR1 receptors) of 1.1 µM.
`CP(C)(=O)c1ccccc1-c1cc(F)c(N2CCC[C@@H](NC(=O)Nc3ncc(Cl)cc3F)C2=O)c(F)c1` [Example 20, 1-(5-Chloro-3-fluoropyridin-2-yl)-3-[(3R)-1-[2′-(dimethylphosphoryl)-3,5-difluoro-[1,1′-biphenyl]-4-yl]-2-oxopiperidin-3-yl]urea] gave an EC50 (human FPR2 receptors) of 0.0432 µM and an EC50 (human FPR1 receptors) of over 10 µM.
Work on `CP(C)(=O)c1ccccc1-c1ccc(N2CCC[C@@H](NC(=O)Nc3ccc(Cl)cc3F)C2=O)cn1` [Example 19, 1-(4-Chloro-2-fluorophenyl)-3-[(3R)-1-{6-[2-(dimethylphosphoryl)phenyl]pyridin-3-yl}-2-oxopiperidin-3-yl]urea] yielded an EC50 (human FPR2 receptors) of 0.0167 µM and an EC50 (human FPR1 receptors) of 0.14 µM.
For `CCP(=O)(CC)c1ccccc1-c1cc(F)c(N2CCC[C@@H](NC(=O)Nc3ccc(Cl)cc3F)C2=O)c(F)c1` [Example 3, 1-(4-Chloro-2-fluorophenyl)-3-[(3R)-1-[2′-(diethylphosphoryl)-3,5-difluoro-[1,1′-biphenyl]-4-yl]-2-oxopiperidin-3-yl]urea], the EC50 (human FPR2 receptors) was 0.00017 µM and the EC50 (human FPR1 receptors) was 0.42 µM.
With `CP(C)(=O)c1ccccc1-c1ccc(N2CCC[C@@H](NC(=O)Nc3ncc(C(F)(F)F)cc3F)C2=O)c(F)c1F` [Example 18] the EC50 (human FPR2 receptors) was 0.0116 µM and the EC50 (human FPR1 receptors) was over 10 µM.
Compound `COc1ccc(NC(=O)N[C@@H]2CCCN(c3ccc(-c4ccccc4P(C)(C)=O)c(F)c3F)C2=O)c(F)c1` [Example 6, 3-[(3R)-1-[2′-(Dimethylphosphoryl)-2,3-difluoro-[1,1′-biphenyl]-4-yl]-2-oxopiperidin-3-yl]-1-(2-fluoro-4-methoxyphenyl)urea] has an EC50 (human FPR2 receptors) of 0.00086 µM and an EC50 (human FPR1 receptors) of 0.43 µM.
`CP(C)(=O)c1ccccc1-c1cc(F)c(N2CCC[C@@H](NC(=O)Nc3ccc(C(F)(F)F)cc3F)C2=O)c(F)c1` [Example 11, 3-[(3R)-1-[2′-(Dimethylphosphoryl)-3,5-difluoro-[1,1′-biphenyl]-4-yl]-2-oxopiperidin-3-yl]-1-[2-fluoro-4-(trifluoromethyl)phenyl] urea] showed an EC50 (human FPR2 receptors) of 0.0026 µM and an EC50 (human FPR1 receptors) of 1.7 µM.
`CP(C)(=O)c1ccccc1-c1ccc(N2CCC[C@@H](NC(=O)Nc3ccc(Cl)cc3F)C2=O)c(C2CC2)c1` [Example 5, 1-(4-Chloro-2-fluorophenyl)-3-[(3R)-1-[3-cyclopropyl-2′-(dimethylphosphoryl)-[1,1′-biphenyl]-4-yl]-2-oxopiperidin-3-yl]urea] showed an EC50 (human FPR2 receptors) of 0.00076 µM and an EC50 (human FPR1 receptors) of 0.017 µM.
For `CP(C)(=O)c1ccccc1-c1cc(F)c(N2CCC[C@@H](NC(=O)Nc3ccc(OC(F)(F)F)cc3)C2=O)c(F)c1` [Example 21, 3-[(3R)-1-[2′-(Dimethylphosphoryl)-3,5-difluoro-[1,1′-biphenyl]-4-yl]-2-oxopiperidin-3-yl]-1-[4-(trifluoromethoxy)phenyl] urea], the EC50 (human FPR2 receptors) was 0.0221 µM and the EC50 (human FPR1 receptors) was over 10 µM.
`CP(C)(=O)c1ccccc1-c1ccc(N2CCC[C@@H](NC(=O)Nc3ncc(Cl)cc3F)C2=O)c(C2CC2)c1` [Example 4, 1-(5-Chloro-3-fluoropyridin-2-yl)-3-[(3R)-1-[3-cyclopropyl-2′-(dimethylphosphoryl)-[1,1′-biphenyl]-4-yl]-2-oxopiperidin-3-yl]urea] was tested, and the EC50 (human FPR2 receptors) was 0.00063 µM and the EC50 (human FPR1 receptors) was 0.0071 µM.
In the case of `CP(C)(=O)c1ccccc1-c1ccc(N2CCC[C@@H](NC(=O)Nc3ccc(C(F)(F)F)cn3)C2=O)c(F)c1F` [Example 12, 3-[(3R)-1-[2′-(Dimethylphosphoryl)-2,3-difluoro-[1,1′-biphenyl]-4-yl]-2-oxopiperidin-3-yl]-1-[5-(trifluoromethyl)pyridin-2-yl]urea], the EC50 (human FPR2 receptors) is reported as 0.0027 µM and the EC50 (human FPR1 receptors) is reported as 1.3 µM.
